# Reference: the supplement of paper PMC8671470
# Columns and labels:
# Details in all cases: 72 h
# [1] = tested on: HL-60; experiment: area under dose-response curve (viability, 1 nM-10 uM) (fraction (0-1)); higher = more sensitive
# Summary of the method: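 HL-60 cells in RPMI 1640 with 10% FBS were rescreened against the full library on 384-well plates at five tenfold concentrations, 1–10,000 nM, in duplicate. Each screen was run with DMSO or 100 nM of one of three metabolic inhibitors, for 72 h at 37 °C, 5% CO2. Viability was read by CellTiter-Glo and normalised to DMSO and 10 μM proteasome-inhibitor wells. Where given, area under the curve came from four-parameter log-logistic fits (drc, PharmacoGx).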
# [2] = tested on: HL-60
# Summary of the method: (§1)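 Dose–response data were fitted with a four-parameter log-logistic model. They came from fifteen myeloid leukaemia lines treated in duplicate with five tenfold doses from 1 to 10,000 nM for 72 h at 37 °C with 5% CO2, with ATP viability normalised to vehicle and to a positive control at 10 µM. The IC50 was derived from these fits.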
# [3] = tested on: BV-173
# Summary of the method: as §1
# [4] = tested on: ML-2
# Summary of the method: as §1
# [5] = tested on: MOLM-13
# Summary of the method: as §1
# [6] = tested on: KG-1
# Summary of the method: as §1
# [7] = tested on: LAMA-84
# Summary of the method: as §1
# [8] = tested on: KCL-22
# Summary of the method: as §1
# [9] = tested on: THP-1
# Summary of the method: as §1
# [10] = tested on: SHI-1
# Summary of the method: as §1
# [11] = tested on: HEL
# Summary of the method: as §1
# [12] = tested on: myeloid leukemia patient primary cells Pat.13; experiment: cell viability (% survival relative to DMSO control); higher = less cytotoxic
# Summary of the method: (§2)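 Thawed mononuclear cells from AML or CML patients were purified on Ficoll and cultured for 72 h in RPMI 1640 with 10% FBS, at 10,000 cells/well, on 384-well plates carrying 70 pre-printed compounds at 1–10,000 nM in five tenfold steps, in duplicate. Viability came from CellTiter-Glo, normalised against DMSO and against 10 μM proteasome inhibitor. Any area under the curve given was derived from log-logistic curve fits in the drc and PharmacoGx R packages, and these fits had four parameters.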
# [13] = tested on: myeloid leukemia patient primary cells Pat.5; experiment: as above
# Summary of the method: as §2
# [14] = tested on: myeloid leukemia patient primary cells Pat.6; experiment: as above
# Summary of the method: as §2
# [15] = tested on: myeloid leukemia patient primary cells Pat.3; experiment: as above
# Summary of the method: as §2
# [16] = tested on: myeloid leukemia patient primary cells Pat.8; experiment: as above
# Summary of the method: as §2
# [17] = tested on: myeloid leukemia patient primary cells Pat.15; experiment: as above
# Summary of the method: as §2
# [18] = tested on: myeloid leukemia patient primary cells Pat.9; experiment: as above
# Summary of the method: as §2
# [19] = tested on: myeloid leukemia patient primary cells Pat.1; experiment: as above
# Summary of the method: as §2
# [20] = tested on: myeloid leukemia patient primary cells Pat.14; experiment: as above
# Summary of the method: as §2
# [21] = tested on: myeloid leukemia patient primary cells Pat.7; experiment: as above
# Summary of the method: as §2
# [22] = tested on: myeloid leukemia patient primary cells Pat.11; experiment: as above
# Summary of the method: as §2
# [23] = tested on: myeloid leukemia patient primary cells Pat.10; experiment: as above
# Summary of the method: as §2
# [24] = tested on: myeloid leukemia patient primary cells Pat.12; experiment: as above
# Summary of the method: as §2
# [25] = tested on: myeloid leukemia patient primary cells Pat.4; experiment: as above
# Summary of the method: as §2
# [26] = tested on: myeloid leukemia patient primary cells Pat.2; experiment: as above
# Summary of the method: as §2
# [27] = co-treatment: GSK2194069 100 nM
# [28] = co-treatment: pictilisib 100 nM
compound,measurement,setting,value
COC(=O)c1cc2c(C(F)(F)F)cc(-c3ccccc3)cc2n1O [NHI-2],area under dose-response curve,[1]; co-treatment: AZD3965 100 nM,< 0.0301
same,area under dose-response curve,[1]; co-treatment: DMSO vehicle,< 0.0301
same,area under dose-response curve,[1]; [27],< 0.0301
same,area under dose-response curve,[1]; [28],< 0.0301
same,IC50 (cell viability),[2],> 10 µM
same,IC50 (cell viability),[3],> 10 µM
same,IC50 (cell viability),[4],> 10 µM
same,IC50 (cell viability),[5],> 10 µM
same,IC50 (cell viability),[6],> 10 µM
same,IC50 (cell viability),[7],> 10 µM
same,IC50 (cell viability),[8],> 10 µM
same,IC50 (cell viability),[9],> 10 µM
same,IC50 (cell viability),[10],> 10 µM
same,IC50 (cell viability),[11],> 10 µM
CCc1oc2ccccc2c1C(=O)c1cc(Br)c(O)c(Br)c1 [Benzbromarone],area under dose-response curve,[1]; co-treatment: AZD3965 100 nM,< 0.0301
same,area under dose-response curve,[1]; co-treatment: DMSO vehicle,< 0.0301
same,area under dose-response curve,[1]; [27],< 0.0301
same,area under dose-response curve,[1]; [28],< 0.0301
same,IC50 (cell viability),[2],> 10 µM
same,IC50 (cell viability),[3],> 10 µM
same,IC50 (cell viability),[4],> 10 µM
same,IC50 (cell viability),[5],> 10 µM
same,IC50 (cell viability),[6],> 10 µM
same,IC50 (cell viability),[7],> 10 µM
same,IC50 (cell viability),[8],> 10 µM
same,IC50 (cell viability),[9],> 10 µM
same,IC50 (cell viability),[10],> 10 µM
same,IC50 (cell viability),[11],> 10 µM
Cc1c2c(=O)n(-c3ccccc3Cl)[nH]c2cc(=O)n1Cc1ccccn1,cell viability,[12]; 1 nM,66.5%
same,cell viability,[12]; 10 nM,80%
same,cell viability,[12]; 100 nM,92.6%
same,cell viability,[12]; 1000 nM,88.9%
same,cell viability,[12]; 10000 nM,92.5%
same,cell viability,[13]; 1 nM,3.33%
same,cell viability,[13]; 10 nM,9.25%
same,cell viability,[13]; 100 nM,36.7%
same,cell viability,[13]; 1000 nM,81.3%
same,cell viability,[13]; 10000 nM,85.9%
same,cell viability,[14]; 1 nM,84.6%
same,cell viability,[14]; 10 nM,91.1%
same,cell viability,[14]; 100 nM,91.7%
same,cell viability,[14]; 1000 nM,> 100%
same,cell viability,[14]; 10000 nM,> 100%
same,cell viability,[15]; 1 nM,25.8%
same,cell viability,[15]; 10 nM,94.3%
same,cell viability,[15]; 100 nM,92.2%
same,cell viability,[15]; 1000 nM,> 100%
same,cell viability,[15]; 10000 nM,> 100%
same,cell viability,[16]; 1 nM,79.7%
same,cell viability,[16]; 10 nM,92.3%
same,cell viability,[16]; 100 nM,86.6%
same,cell viability,[16]; 1000 nM,96.9%
same,cell viability,[16]; 10000 nM,75.9%
same,cell viability,[17]; 1 nM,77.3%
same,cell viability,[17]; 10 nM,83.4%
same,cell viability,[17]; 100 nM,81.8%
same,cell viability,[17]; 1000 nM,95.5%
same,cell viability,[17]; 10000 nM,93%
same,cell viability,[18]; 1 nM,1.24%
same,cell viability,[18]; 10 nM,62.4%
same,cell viability,[18]; 100 nM,54.9%
same,cell viability,[18]; 1000 nM,100%
same,cell viability,[18]; 10000 nM,100%
same,cell viability,[19]; 1 nM,53.7%
same,cell viability,[19]; 10 nM,89.9%
same,cell viability,[19]; 100 nM,91.5%
same,cell viability,[19]; 1000 nM,96.7%
same,cell viability,[19]; 10000 nM,85.5%
same,cell viability,[20]; 1 nM,28.5%
same,cell viability,[20]; 10 nM,69.8%
same,cell viability,[20]; 100 nM,64.5%
same,cell viability,[20]; 1000 nM,99.6%
same,cell viability,[20]; 10000 nM,> 100%
same,cell viability,[21]; 1 nM,13.2%
same,cell viability,[21]; 10 nM,82.9%
same,cell viability,[21]; 100 nM,63.7%
same,cell viability,[21]; 1000 nM,91%
same,cell viability,[21]; 10000 nM,> 100%
same,cell viability,[22]; 1 nM,88%
same,cell viability,[22]; 10 nM,95.7%
same,cell viability,[22]; 100 nM,88.1%
same,cell viability,[22]; 1000 nM,99.3%
same,cell viability,[22]; 10000 nM,99.1%
same,cell viability,[23]; 1 nM,27.2%
same,cell viability,[23]; 10 nM,64.5%
same,cell viability,[23]; 100 nM,42.2%
same,cell viability,[23]; 1000 nM,86.1%
same,cell viability,[23]; 10000 nM,42.3%
same,cell viability,[24]; 1 nM,89.5%
same,cell viability,[24]; 10 nM,97.6%
same,cell viability,[24]; 100 nM,99.3%
same,cell viability,[24]; 1000 nM,88.3%
same,cell viability,[24]; 10000 nM,92.2%
same,cell viability,[25]; 1 nM,63.6%
same,cell viability,[25]; 10 nM,90.8%
same,cell viability,[25]; 100 nM,81.5%
same,cell viability,[25]; 1000 nM,98.5%
same,cell viability,[25]; 10000 nM,72.8%
same,cell viability,[26]; 1 nM,86.2%
same,cell viability,[26]; 10 nM,92.7%
same,cell viability,[26]; 100 nM,88.6%
same,cell viability,[26]; 1000 nM,94.6%
same,cell viability,[26]; 10000 nM,> 100%
same,IC50 (cell viability),[2],> 10 µM
same,IC50 (cell viability),[3],> 10 µM
same,IC50 (cell viability),[4],> 10 µM
same,IC50 (cell viability),[5],2.76 µM
same,IC50 (cell viability),[6],> 10 µM
same,IC50 (cell viability),[7],> 10 µM
same,IC50 (cell viability),[8],> 10 µM
same,IC50 (cell viability),[9],> 10 µM
same,IC50 (cell viability),[10],> 10 µM
same,IC50 (cell viability),[11],> 10 µM
O=C([O-])CC(O)(C(=O)[O-])C(O)C(=O)[O-].[K+].[K+].[K+] (stereo not given) [Hydroxycitrate],area under dose-response curve,[1]; co-treatment: AZD3965 100 nM,< 0.0301
same,area under dose-response curve,[1]; co-treatment: DMSO vehicle,< 0.0301
same,area under dose-response curve,[1]; [27],< 0.0301
same,area under dose-response curve,[1]; [28],< 0.0301
same,IC50 (cell viability),[2],> 10 µM
same,IC50 (cell viability),[3],> 10 µM
same,IC50 (cell viability),[4],> 10 µM
same,IC50 (cell viability),[5],> 10 µM
same,IC50 (cell viability),[6],> 10 µM
same,IC50 (cell viability),[7],> 10 µM
same,IC50 (cell viability),[8],> 10 µM
same,IC50 (cell viability),[9],> 10 µM
same,IC50 (cell viability),[10],> 10 µM
same,IC50 (cell viability),[11],> 10 µM
CC(C)CC(=O)N[C@H](C(=O)N[C@H](C(=O)N[C@@H](CC(C)C)[C@@H](O)CC(=O)N[C@@H](C)C(=O)N[C@@H](CC(C)C)[C@@H](O)CC(=O)O)C(C)C)C(C)C [Pepstatin A],area under dose-response curve,[1]; co-treatment: AZD3965 100 nM,< 0.0301
same,area under dose-response curve,[1]; co-treatment: DMSO vehicle,< 0.0301
same,area under dose-response curve,[1]; [27],< 0.0301
same,area under dose-response curve,[1]; [28],< 0.0301
same,IC50 (cell viability),[2],> 10 µM
same,IC50 (cell viability),[3],> 10 µM
same,IC50 (cell viability),[4],> 10 µM
same,IC50 (cell viability),[5],> 10 µM
same,IC50 (cell viability),[6],> 10 µM
same,IC50 (cell viability),[7],> 10 µM
same,IC50 (cell viability),[8],> 10 µM
same,IC50 (cell viability),[9],> 10 µM
same,IC50 (cell viability),[10],> 10 µM
same,IC50 (cell viability),[11],> 10 µM
CCc1c(C(=O)C(N)=O)c2c(OCC(=O)O)cccc2n1Cc1ccccc1 [Varespladib],IC50 (cell viability),[2],> 10 µM
same,IC50 (cell viability),[3],> 10 µM
same,IC50 (cell viability),[4],> 10 µM
same,IC50 (cell viability),[5],> 10 µM
same,IC50 (cell viability),[6],> 10 µM
same,IC50 (cell viability),[7],> 10 µM
same,IC50 (cell viability),[8],> 10 µM
same,IC50 (cell viability),[9],> 10 µM
same,IC50 (cell viability),[10],> 10 µM
same,IC50 (cell viability),[11],> 10 µM
N#C/C(=C\c1ccc(O)cc1)C(=O)O [alpha-cyano-4-hydroxycinnamic acid],area under dose-response curve,[1]; co-treatment: AZD3965 100 nM,< 0.0301
same,area under dose-response curve,[1]; co-treatment: DMSO vehicle,< 0.0301
same,area under dose-response curve,[1]; [27],< 0.0301
same,area under dose-response curve,[1]; [28],< 0.0301
same,IC50 (cell viability),[2],> 10 µM
same,IC50 (cell viability),[3],> 10 µM
same,IC50 (cell viability),[4],> 10 µM
same,IC50 (cell viability),[5],> 10 µM
same,IC50 (cell viability),[6],> 10 µM
same,IC50 (cell viability),[7],> 10 µM
same,IC50 (cell viability),[8],> 10 µM
same,IC50 (cell viability),[9],> 10 µM
same,IC50 (cell viability),[10],> 10 µM
same,IC50 (cell viability),[11],> 10 µM
